# Experimental data published in patent US12510533B2, “Methods for treating multiple myeloma and the use of companion biomarkers for 4-(4-(4-(((2-(2,6-dioxopiperidin-3-yl)-1-oxoisoindolin-4-yl)oxy)methyl)benzyl)piperazin-1-yl)-3-fluorobenzonitrile” (Celgene Corporation, priority 2018, dated 2025).
# Tests used:
# [1] = test system: tumor necrosis factor alpha (TNF-α); test: TNF-α production by TCR-activated healthy PBMCs; format: cell-based, human; conditions: 24 hours
# Procedure: FIG. 21A-FIG. 21C illustrate that Compound 2 is a potent inducer of effector cytokines. […] (FIG. 21A) IL-2, (FIG. 21B) IFN-γ, and (FIG. 21C) TNF-α. Data shown are an average from three or four donors and are represented as fold change over DMSO control; error bars represent standard error of the mean (SEM).
# The immunomodulatory activity of Compound 2 on T cell receptor (TCR)-activated healthy PBMCs was assessed. […] This increased in cytokine secretion was evident as early as 24 hours after introduction of Compound 2 with the peak of the effector cytokine production induced by Compound 2 being 5.5-fold for IL-2, 4.5-fold for interferon gamma (IFN-γ), and 2-fold for tumor necrosis factor alpha (TNF-α) above the vehicle control (FIG. 21A-FIG. 21C, respectively).
# [2] = test system: Ikaros and Aiolos; test: Immunoblot of Ikaros and Aiolos in DF15R and DF15R-human CRBN WT cells; format: cell-based; conditions: 0.1 μM, 4 hours
# Procedure: Shown are Cereblon, Ikaros, and Aiolos immunoblots of extracts from DF15R and DF15R-human CRBN^WT cells that were incubated with DMSO, pomalidomide, or Compound 2 at 0.1 μM for 4 hours. Tubulin is a loading control.
# To determine whether cereblon could serve as a biomarker for predicting response to Compound 2, the myeloma cell line DF15R was treated with Compound 2.
compound,measurement,setting,value
"N#Cc1ccc(N2CCN(Cc3ccc(COc4cccc5c4CN([C@H]4CCC(=O)NC4=O)C5=O)cc3)CC2)c(F)c1 [Compound 2, (S)-4-(4-(4-(((2-(2,6-dioxopiperidin-3-yl)-1-oxoisoindolin-4-yl)oxy)methyl)benzyl)piperazin-1-yl)-3-fluorobenzonitrile]",peak TNF-α production above the vehicle control,[1],2 fold
same,degradation of Ikaros or Aiolos,"[2]; DF15R cells, no detectable CRBN",did not show any degradation
same,degradation of Ikaros and Aiolos after reintroduction of CRBN,[2]; DF15R-human CRBN WT cells,reactivated
